Test [1] can be described thus: DRUGMATRIX: Atrial Natriuretic Factor (ANF) radioligand binding (ligand: [125I] ANF (rat)). It is filed as cell membranes, Cavia porcellus, Dunkin-Hartley, Adrenal gland, Membrane. The settings on record: Not Active = under 50% inhibition at 10 µM.
Test [2] is described as follows: DRUGMATRIX: beta-Lactamase enzyme inhibition (substrate: Nitrocefin). More on the design: species or system Bacillus cereus. To be noted: Not Active = under 50% inhibition at 10 µM.
Test [3] is described as follows: DRUGMATRIX: Calcium Channel Type L, Benzothiazepine radioligand binding (ligand: [3H] Diltiazem). Type of test: cell membranes, Rattus norvegicus, Wistar, Brain, Membrane. To be noted: Not Active = under 50% inhibition at 10 µM.
In a further test the target is T1, Thromboxane-A synthase (Homo sapiens, UniProt P24557).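 Note: enzyme inhibition assay with PGH2 supplied as substrate; in other assays of this panel Not Active means under 50% inhibition at 10 µM.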
T1 sequence (P24557 whole entry): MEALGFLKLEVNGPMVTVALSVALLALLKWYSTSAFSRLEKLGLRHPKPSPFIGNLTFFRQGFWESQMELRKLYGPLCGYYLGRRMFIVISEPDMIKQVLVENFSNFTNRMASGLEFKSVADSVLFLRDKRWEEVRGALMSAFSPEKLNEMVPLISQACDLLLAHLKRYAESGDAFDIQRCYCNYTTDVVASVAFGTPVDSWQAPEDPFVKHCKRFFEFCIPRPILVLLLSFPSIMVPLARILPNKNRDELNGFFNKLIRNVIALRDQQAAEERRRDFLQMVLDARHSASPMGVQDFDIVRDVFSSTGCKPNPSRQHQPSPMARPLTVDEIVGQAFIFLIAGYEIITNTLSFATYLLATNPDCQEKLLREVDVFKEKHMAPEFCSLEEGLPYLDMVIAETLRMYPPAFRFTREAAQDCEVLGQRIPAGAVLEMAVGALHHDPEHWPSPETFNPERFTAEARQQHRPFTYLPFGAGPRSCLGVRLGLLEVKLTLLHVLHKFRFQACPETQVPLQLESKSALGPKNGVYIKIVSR
The experiment in a line: biochemical. Type of test: tissue-based, Platelet. To be noted: platelet.

Test [4] addresses C-C chemokine receptor type 2 (Homo sapiens, UniProt P41597). It is filed as cell membranes, CHO-K1, Membrane. The settings on record: cho-k1.
Test [5] in a line: DRUGMATRIX: GABAA, Flunitrazepam, Central radioligand binding (ligand: [3H] Flunitrazepam). Type of test: cell membranes, Rattus norvegicus, Wistar, Brain, Membrane. The settings on record: Not Active = under 50% inhibition at 10 µM.
The nature of test [6]: DRUGMATRIX: Glutamate, Kainate radioligand binding (ligand: [3H] Kainic acid). Type of test: cell membranes, Rattus norvegicus, Wistar, Brain, Membrane. To be noted: Not Active = under 50% inhibition at 10 µM.
Test [7] is described as follows: DRUGMATRIX: Phorbol Ester radioligand binding (ligand: [3H] PDBu). It is filed as cell membranes, Mus musculus, ICR, Brain, Membrane. The settings on record: Not Active = under 50% inhibition at 10 µM.
In the next test the target is T2, Progesterone receptor (Bos taurus, UniProt Q690N0).
T2 sequence (Q690N0 whole entry): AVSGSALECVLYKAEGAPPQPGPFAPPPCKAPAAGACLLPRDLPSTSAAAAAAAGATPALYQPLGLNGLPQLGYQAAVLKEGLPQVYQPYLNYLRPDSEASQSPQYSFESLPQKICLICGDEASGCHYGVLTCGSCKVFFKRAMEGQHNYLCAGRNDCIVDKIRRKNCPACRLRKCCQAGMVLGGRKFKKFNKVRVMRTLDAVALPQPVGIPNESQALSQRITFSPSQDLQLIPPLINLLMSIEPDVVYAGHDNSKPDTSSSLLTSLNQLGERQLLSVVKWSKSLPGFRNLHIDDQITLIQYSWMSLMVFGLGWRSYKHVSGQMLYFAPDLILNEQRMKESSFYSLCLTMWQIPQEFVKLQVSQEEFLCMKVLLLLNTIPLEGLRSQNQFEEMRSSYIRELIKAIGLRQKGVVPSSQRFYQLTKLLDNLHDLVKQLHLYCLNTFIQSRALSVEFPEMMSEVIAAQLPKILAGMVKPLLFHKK
Briefly: DRUGMATRIX: Progesterone radioligand binding (ligand: [3H] R-5020). Type of test: tissue-based, Uterus. The settings on record: Not Active = under 50% inhibition at 10 µM.

The target in test [8] is T3, Angiotensin-converting enzyme (Oryctolagus cuniculus, UniProt P12822).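 Note: enzymatic inhibition of angiotensin-converting enzyme measured with FAPGG as the substrate; in other assays of this panel Not Active means under 50% inhibition at 10 µM.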
T3 sequence (P12822 whole entry): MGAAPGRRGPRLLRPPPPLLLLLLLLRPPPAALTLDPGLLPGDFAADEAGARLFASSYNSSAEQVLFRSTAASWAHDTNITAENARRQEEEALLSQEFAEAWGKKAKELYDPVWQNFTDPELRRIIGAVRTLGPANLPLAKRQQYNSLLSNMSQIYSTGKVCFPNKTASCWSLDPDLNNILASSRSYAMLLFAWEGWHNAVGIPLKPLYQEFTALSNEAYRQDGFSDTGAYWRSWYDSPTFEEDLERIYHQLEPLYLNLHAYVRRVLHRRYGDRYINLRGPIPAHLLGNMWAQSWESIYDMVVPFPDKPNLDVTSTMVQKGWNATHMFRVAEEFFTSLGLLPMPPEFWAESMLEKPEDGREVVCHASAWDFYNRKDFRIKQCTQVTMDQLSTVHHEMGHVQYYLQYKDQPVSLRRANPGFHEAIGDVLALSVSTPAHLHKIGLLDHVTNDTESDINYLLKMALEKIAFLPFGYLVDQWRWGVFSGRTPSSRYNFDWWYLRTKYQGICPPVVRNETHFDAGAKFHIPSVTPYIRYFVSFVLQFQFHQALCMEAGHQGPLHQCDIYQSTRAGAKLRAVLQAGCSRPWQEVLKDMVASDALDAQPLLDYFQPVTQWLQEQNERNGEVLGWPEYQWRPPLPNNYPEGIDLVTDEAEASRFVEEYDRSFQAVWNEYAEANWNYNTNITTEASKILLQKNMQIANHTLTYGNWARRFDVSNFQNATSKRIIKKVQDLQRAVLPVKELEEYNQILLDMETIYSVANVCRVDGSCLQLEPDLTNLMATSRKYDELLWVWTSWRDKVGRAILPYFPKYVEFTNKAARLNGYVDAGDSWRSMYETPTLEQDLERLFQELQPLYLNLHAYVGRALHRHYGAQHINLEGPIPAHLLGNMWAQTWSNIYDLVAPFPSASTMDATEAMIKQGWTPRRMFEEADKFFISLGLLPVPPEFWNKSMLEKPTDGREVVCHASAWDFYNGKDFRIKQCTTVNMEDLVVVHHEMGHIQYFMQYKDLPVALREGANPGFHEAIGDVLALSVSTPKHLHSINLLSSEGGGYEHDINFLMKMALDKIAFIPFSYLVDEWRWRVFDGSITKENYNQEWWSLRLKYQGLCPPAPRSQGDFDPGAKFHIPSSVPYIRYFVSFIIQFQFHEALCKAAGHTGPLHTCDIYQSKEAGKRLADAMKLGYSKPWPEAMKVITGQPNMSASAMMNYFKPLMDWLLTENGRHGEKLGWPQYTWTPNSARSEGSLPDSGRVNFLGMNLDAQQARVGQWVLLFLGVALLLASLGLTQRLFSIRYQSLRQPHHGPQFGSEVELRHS
The experiment in a line: biochemical. Type of test: tissue-based, Lung.

What is called IC50 is the concentration that gives 50% inhibition.

C-C chemokine receptor type 2, sequence (P41597 whole entry): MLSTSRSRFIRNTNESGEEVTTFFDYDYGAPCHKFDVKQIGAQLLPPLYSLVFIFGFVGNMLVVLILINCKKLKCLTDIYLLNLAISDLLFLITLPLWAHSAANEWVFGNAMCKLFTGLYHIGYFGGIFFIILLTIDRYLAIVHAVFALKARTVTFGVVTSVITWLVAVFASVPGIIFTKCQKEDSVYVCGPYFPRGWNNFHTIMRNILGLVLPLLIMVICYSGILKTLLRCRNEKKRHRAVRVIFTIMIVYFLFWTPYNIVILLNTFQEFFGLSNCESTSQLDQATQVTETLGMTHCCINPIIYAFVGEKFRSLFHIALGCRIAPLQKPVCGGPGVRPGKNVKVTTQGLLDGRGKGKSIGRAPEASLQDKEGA

As for `CC(CCc1ccccc1)NCC(O)c1ccc(O)c(C(N)=O)c1` (configuration not stated) [LABETALOL], the IC50 result (in test [1]; in [2]; in test [3]; against Thromboxane-A synthase; in test [4]; in test [5]) was “Not Active” in each case. Moreover, the IC50 entry (in test [6]; in test [7]; at Progesterone receptor; in test [8]) was “Not Active” in each case. Besides, the Ki result in [1], in [2], in test [3], in test [5], in test [6] and in test [7] was “Not Active” throughout.
As for `Nc1nnc(-c2cccc(Cl)c2Cl)c(N)n1` [LAMOTRIGINE], the IC50 entry (in test [1]; in test [2]; in test [3]; at Thromboxane-A synthase; in [4]; in [5]) was “Not Active” in each case. The half-maximal inhibitory concentration (IC50) result (in test [6]; in test [7]; at Progesterone receptor; in [8]) was “Not Active” throughout. Moreover, the Ki entry in test [1], in test [2], in test [3], in test [5], in test [6] and in test [7] was “Not Active” throughout.
In the case of `NCCCC[C@H](N[C@@H](CCc1ccccc1)C(=O)O)C(=O)N1CCC[C@H]1C(=O)O` [LISINOPRIL ANHYDROUS], the IC50 entry (in test [1]; in test [2]; in test [3]; at Thromboxane-A synthase; in test [4]; in [5]) was “Not Active” throughout. Moreover, the IC50 entry in test [6] is “Not Active”; in [7], “Not Active”; on Progesterone receptor, “Not Active”; in test [8] (read-out: IC50) it was 6.04 nM. In addition, the Ki entry in test [1], in test [2], in [3], in [5], in test [6] and in test [7] was “Not Active” each time.
As for `COC(=O)c1ccc(O)cc1` [METHYLPARABEN], the IC50 result (in test [1]; in test [2]; in test [3]; on Thromboxane-A synthase; in test [4]; in [5]) was “Not Active” each time. Besides, the IC50 entry (in test [6]; in test [7]; on Progesterone receptor; in test [8]) was “Not Active” throughout. The Ki entry in [1], in test [2], in test [3], in test [5], in test [6] and in test [7] was “Not Active” in each case.
Turning to `C[C@](N)(Cc1ccc(O)cc1)C(=O)O` [METYROSINE], the IC50 entry (in [1]; in test [2]; in [3]; at Thromboxane-A synthase; in [4]; in [5]) was “Not Active” throughout. The IC50 entry (in test [6]; in [7]; at Progesterone receptor; in [8]) was “Not Active” each time. For the same compound, the Ki entry in test [1], in test [2], in [3], in test [5], in [6] and in [7] was “Not Active” throughout.
With `Clc1ccc(C(c2ccccc2Cl)C(Cl)Cl)cc1` (configuration not stated) [MITOTANE], the IC50 entry (in test [1]; in test [2]; in test [3]; against Thromboxane-A synthase; in test [4]; in test [5]) was “Not Active” in each case. Also, the IC50 entry (in test [6]; in test [7]; at Progesterone receptor; in test [8]) was “Not Active” in each case. Further, the Ki entry in [1], in test [2], in [3], in test [5], in test [6] and in [7] was “Not Active” each time.
As for `O=C1c2c(O)ccc(O)c2C(=O)c2c(NCCNCCO)ccc(NCCNCCO)c21` [MITOXANTRONE], the IC50 entry (in test [1]; in test [2]; in test [3]; against Thromboxane-A synthase; in [4]; in [5]) was “Not Active” in each case. Further, the half-inhibitory concentration (IC50) entry (in test [6]; in test [7]; on Progesterone receptor; in test [8]) was “Not Active” each time. Besides, the Ki entry in test [1], in [2], in [3], in test [5], in test [6] and in test [7] was “Not Active” in each case.

These data come from ChEMBL document CHEMBL1909046, “DrugMatrix in vitro pharmacology data”.
